Measurements as given in PubChem BioAssay AID463204 (Broad Institute, 2010).
Activity calls are given as the source filed them.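 How the source made its calls: active means AC50 no more than ten times the top concentration tested, that is within one log above it; inconclusive means flat curve fit with activity between 30% and 70%, or invalid poor fit; inactive means AC50 beyond ten times the top tested dose.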

tested on: S. cerevisiae Mot1-301 ts growth rescue, BacTiter-Glo ATP luminescence; assay: growth rescue of Mot1-301 ts yeast, confirmation, SUMOylation pathway inhibitor project, whole organism, S. cerevisiae, Mot1-301 ts mutant, luminescence, dose retest (AID 463204);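 further: growth at restrictive 38.5 degrees C of Mot1-301 OY566 strain; actives raise luminescence by restoring growth of the ts mutant at high temperature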

SMILES | AC50
O=c1cnc2cc([N+](=O)[O-])ccc2[nH]1 | > 42 µM (inactive)
Cc1ccc(-c2ccc(/C=N/n3cnnc3)o2)cc1 | > 42 µM (inactive)
COC(=O)c1cn(C(=O)c2cccc3ccccc23)c2ccccc12 | > 42 µM (inactive)
Cc1ccccc1C(=O)/C=C1\NC(=O)CS1 | > 21 µM (inactive)
CCNC(=O)COc1ccc(S(=O)(=O)Nc2ccccc2)cc1 | > 21 µM (inactive)
Cc1c(O)ccc(C(=O)CN2C(=O)c3ccccc3C2=O)c1O | > 42 µM (inactive)
COC(=O)c1c(C)cc(O)c(C=O)c1O | 17.7 µM
Cc1ccc(C)c(S(=O)(=O)n2cnc3ccccc32)c1 | > 42 µM (inactive)
N=c1c[n+](C2CCCCC2)[n-]o1 | > 42 µM (inactive)
CC(C)C(=O)Nc1cccc(-c2nc3ncccc3o2)c1 | > 42 µM (inactive)
O=C(NNC(=O)C12CC3CC(CC(C3)C1)C2)c1ccccn1 | 21 µM
C=CCNC(=O)c1cc(-c2cccnc2)nc2ccccc12 | > 42 µM (inactive)
COc1ccc(S(=O)(=O)N2CCN(c3ccc(F)cc3)CC2)cc1C(=O)N1CCOCC1 | > 42 µM (inactive)
CCOC(=O)NNC(=O)CCn1c2c(c3ccccc31)CCCC2 | > 42 µM (inactive)
CCn1nccc1C(=O)Nc1ccccc1OC | > 42 µM (inactive)
COc1cccc(N=Nc2c(=O)[nH]n3c(=O)cc(C)[nH]c23)c1 | > 42 µM (inactive)
O=C(Nc1ccccn1)c1ccc(CN(c2ccccc2)S(=O)(=O)c2ccccc2)cc1 | > 42 µM (inactive)
Cc1c(NC(=O)C(C)Sc2nnc(-c3ccccc3)o2)c(=O)n(-c2ccccc2)n1C (stereo not drawn) | > 42 µM (inactive)
Cc1ccc(S(=O)(=O)n2cccc2C)cc1 | > 42 µM (inactive)
Cc1cc(C)n2c(SCC(C)C)nnc2n1 | > 42 µM (inactive)
Cc1nc2ccc(NC(=O)c3ccco3)cc2s1 | > 42 µM (inactive)
CCOc1ccc(Cn2c(SCCCCC#N)nc3c2c(=O)n(C)c(=O)n3C)cc1OCC | > 42 µM (inactive)
COc1ccc(N(C(=O)c2ccncc2)S(=O)(=O)c2ccc(F)cc2)cc1 | > 42 µM (inactive)
Cc1cccc(OCCC(=O)Nc2ccc(F)c(F)c2)c1 | > 42 µM (inactive)
Cc1cccc(N(C(=O)c2ccc(CN3CCOCC3)o2)C(C(=O)NC2CCCCC2)c2ccc(F)cc2)c1 (stereo not drawn) | > 42 µM (inactive)
Cc1cc(C(F)F)n2ncc(C(=O)NCCc3ccc(Cl)cc3)c2n1 | > 42 µM (inactive)

SMILES | AC50
C/C=C/C(=O)OCC(=O)Nc1nc2ccc(C)cc2s1 | > 42 µM (inactive)
O=C(O)Cc1sc(Nc2ccccc2)nc1-c1cccs1 | > 42 µM (inactive)
CC(C)Cc1nc(N2CCOCC2)c(C#N)c2c1CCC2 | > 42 µM (inactive)
CN1CCN(C(=O)CCN2C(=O)/C(=C/c3ccccc3Cl)SC2=S)CC1 | > 42 µM (inactive)
COc1ccccc1NC(=O)N1CCN(C(=O)Nc2ccccc2OC)CC1 | > 42 µM (inactive)
Cn1cc(Br)c(C(=O)Nc2nccs2)n1 | > 42 µM (inactive)
COc1cc(/C=N/NC(=O)c2ccncc2)ccc1OC(=O)c1ccco1 | > 42 µM (inactive)
C=CCNc1nnc(SC2CC(=O)N(c3ccc(OCCC)cc3)C2=O)s1 (stereo not drawn) | 4.49 µM
O=C(O)c1ccc(CNC(=O)c2ccccc2NC(=O)c2ccc([N+](=O)[O-])cc2)cc1 | > 42 µM (inactive)
COc1ccccc1CNC(=O)[C@H](C)NC(=O)C1CCN(C(=O)[C@@H](N)CC(C)C)CC1 | > 42 µM (inactive)
O=C(N/N=C/c1ccc(Cl)s1)c1ccccc1[N+](=O)[O-] | > 42 µM (inactive)
CCOc1ccc(C(=O)NCC2OCCc3ccccc32)cc1 (stereo not drawn) | > 42 µM (inactive)
CCc1ccccc1NC1c2ccccc2C(=O)N1c1cccnc1 (stereo not drawn) | > 42 µM (inactive)
CC12CCC(=O)N1C(C(=O)Nc1ccccc1F)CS2 (stereo not drawn) | > 42 µM (inactive)
C=CCNC(=O)NC(=O)COC(=O)CCCSc1nc2ccccc2[nH]1 | > 42 µM (inactive)
CCCOC(=O)c1c(-c2ccc(OC)cc2)oc2ccc(-c3ccc(OC)nc3)cc12 | > 42 µM (inactive)
Nc1ccc(N2CCN(c3ccc(F)cc3)CC2)cc1 | > 42 µM (inactive)
CCOc1ccccc1CN1CCN(Cc2ccon2)CC1CCO (stereo not drawn) | > 42 µM (inactive)
Cc1cccc(NC(=S)NCc2ccco2)c1C | > 42 µM (inactive)
Cc1ccc(SCC(=O)O/N=C(\N)c2cccc([N+](=O)[O-])c2)cc1 | > 42 µM (inactive)
Cc1ccccc1NC1=NCCCS1 | > 42 µM (inactive)
COc1cc(C)ccc1OCCCOc1ccccc1Br | > 42 µM (inactive)
C/C(=N\N=C(c1ccccc1)c1ccccc1)c1ccco1 | > 42 µM (inactive)
COc1ccc(NC(=O)CCC(=O)Nc2nnc(C(F)(F)F)s2)c(OC)c1 | > 42 µM (inactive)
O=C(OCCCCOC(=O)c1ccccc1)c1ccccc1 | > 42 µM (inactive)
CCN(CC)S(=O)(=O)c1ccc(NC(=O)C(C)N(c2ccccc2)S(C)(=O)=O)cc1 (stereo not drawn) | > 42 µM (inactive)

SMILES | AC50
CCOC(=O)C1=C[C@]2(CC)CCCN3CCc4c(n1c1ccccc41)[C@@H]32 | > 42 µM (inactive)
C/C(=N\N=C(/N)SC1CC(=O)N(c2cccc(Cl)c2)C1=O)c1cccs1 (stereo not drawn) | > 42 µM (inactive)
Cc1ccc(N(C(=O)Cn2nnc3ccccc32)C(C(=O)NC2CCCCC2)c2cn(C)nc2C)cc1 (stereo not drawn) | > 21 µM (inactive)
CCc1ccccc1NC(=O)N[C@@H](C)C(=O)OC | > 42 µM (inactive)
CN(C)C(=O)CCN1CCOCC1 | > 42 µM (inactive)
Cc1nc2nc[nH]n2c(=O)c1NS(=O)(=O)c1ccc([N+](=O)[O-])cc1 | > 42 µM (inactive)
COc1cccc(/C=N/NC(=O)CNC(=O)c2ccco2)c1O | > 42 µM (inactive)
COC(=O)C1=C(C)N(Cc2ccccc2)C(=S)N[C@H]1c1cccc(F)c1 | > 42 µM (inactive)
C=CCOc1ccccc1CN1CCCC(CCC(=O)N(C)CCc2ccccn2)C1 (stereo not drawn) | > 21 µM (inactive)
Cn1c(=NC(=O)COc2ccccc2)sc2cc(F)cc(F)c21 | > 42 µM (inactive)
COc1cccc(CNC(=O)CCCn2nc(C)c3c(C)n(-c4ccccc4)nc3c2=O)c1 | > 42 µM (inactive)
N#Cc1c2ccc([N+](=O)[O-])cc2[n+]([O-])n1-c1ccccc1 | 2.9 µM
Cc1cc(C)cc(C(=O)Oc2cc(C)[nH]c(=O)c2[N+](=O)[O-])c1 | > 42 µM (inactive)
COCCn1c(SCC(=O)NCc2cccs2)nnc1-c1ccc(OC)cc1 | > 42 µM (inactive)
CC(C)c1ccc(-c2cc(C(=O)N3CCOCC3)c3cc(Br)ccc3n2)cc1 | > 42 µM (inactive)
Cc1ccc(NC(=S)NC(NC(=O)c2ccccc2C)C(Cl)(Cl)Cl)c(C)c1 (stereo not drawn) | > 42 µM (inactive)
CC1CCCCN1C(=O)C(Cc1ccccc1)N1C(=O)C2CCCCC2C1=O (stereo not drawn) | 32.5 µM
CSc1nnc2c3cc(C)ccc3n(Cc3ccccc3)c2n1 | > 42 µM (inactive)
O=C(CSc1nnc(CNC(=O)c2ccccc2F)o1)NCCc1ccccc1 | > 42 µM (inactive)
CCN(CC)CCCN1C(=O)C(=O)/C(=C(/O)c2ccccc2)C1c1cc(OC)ccc1OC (stereo not drawn) | > 42 µM (inactive)
CCOc1ccc(S(=O)(=O)N2CCN(CC(O)COc3cccc([N+](=O)[O-])c3)CC2)cc1 (stereo not drawn) | > 42 µM (inactive)
CCOC(=O)c1cnc2oc3ccccc3n2c1=O | > 42 µM (inactive)
CO/N=C/c1ccc(Oc2ccc(C)cc2)nc1 | > 42 µM (inactive)
COCCCn1c(=O)c2ccccc2n(Cc2ccccc2C)c1=O | > 42 µM (inactive)
Cc1ccc(NC(=O)CN2C(=O)COc3ccc(S(=O)(=O)N4CCOCC4)cc32)cc1F | > 42 µM (inactive)
CCCCNS(=O)(=O)c1ccc2c(c1)oc(=O)n2CC(=O)OCC | > 42 µM (inactive)

SMILES | AC50
CN(C(=S)NC1=CCS(=O)(=O)C1)C1CCCCC1 | > 42 µM (inactive)
O=C1CN(C(=O)COC(=O)c2ccccc2NCc2ccco2)c2ccccc2N1 | > 42 µM (inactive)
c1ccc2c(c1)OCCOCCOc1ccccc1OCCOCCO2 | > 42 µM (inactive)
O=C1CC(=O)C(n2cncn2)C(c2ccc(Cl)cc2Cl)C1 (stereo not drawn) | > 42 µM (inactive)
CC1CC(C)(C)N(C(=O)CN2C(=O)CCC2=O)c2ccccc21 (stereo not drawn) | > 42 µM (inactive)
O=C(Nc1ccc(S(=O)(=O)NC2=NCCCCC2)cc1)c1ccc(C(F)(F)F)cc1 | > 42 µM (inactive)
COc1ccccc1OCCCn1cc(C#N)c2ccccc21 | > 42 µM (inactive)
O=C(COC(=O)c1c(F)cccc1F)c1ccc[nH]1 | > 42 µM (inactive)
Cc1nc(CC(=O)N/N=C/c2ccc(OCC(=O)O)cc2)cs1 | > 42 µM (inactive)
CCC1=Nc2cc(C(=O)NCc3ccco3)ccc2Sc2ccccc21 | > 42 µM (inactive)
CN1CCCC(n2nc(Cc3ccc(Cl)cc3)c3ccccc3c2=O)CC1 (stereo not drawn) | > 42 µM (inactive)
COc1cccc(NC(=O)CN2CCN(c3ccccc3F)CC2)c1 | 39.1 µM
CCn1c(SCc2nc3ccccc3[nH]2)nnc1-c1cccnc1 | > 42 µM (inactive)
Cc1cc(C)cc(OCC(=O)Nc2ccc(N3CCN(C(=O)c4ccco4)CC3)cc2)c1 | > 42 µM (inactive)
Cc1ccnc(NC(=O)c2ccc(Br)s2)c1 | > 42 µM (inactive)
Cc1ccc(S(=O)(=O)NCc2ccc(C(=O)N3CCN(c4ccccn4)CC3)cc2)cc1 | > 42 µM (inactive)
CCc1nn(C)c(N)c1C | > 42 µM (inactive)
CCOC(=O)N1CCN(c2nnnn2-c2ccccc2)CC1 | > 42 µM (inactive)
N=c1n(CCCOc2ccc(Br)cc2)c2ccccc2n1CC(N)=O | > 42 µM (inactive)
S=C(c1ccc(N2CCOCC2)cc1)N1CCCCC1 | > 42 µM (inactive)
CCN(CC)CCCN(Cc1cc2cc(OC)ccc2[nH]c1=O)C(=O)Nc1ccc(F)cc1 | > 42 µM (inactive)
Cc1ccc(S(=O)(=O)NCC(=O)OCC(=O)c2ccc(Br)s2)cc1 | > 42 µM (inactive)
CCn1c(SCC(N)=O)nnc1-c1cc2c(C)nn(-c3ccccc3)c2s1 | > 42 µM (inactive)
CCOc1ccc(N2CC(C(=O)OC)CC2=O)cc1 (stereo not drawn) | > 42 µM (inactive)
CC(Oc1ccc([N+](=O)[O-])cc1)C(=O)NCCCN1CCOCC1 (stereo not drawn) | > 42 µM (inactive)
